Source: ChEMBL document CHEMBL1201862, “PubChem BioAssay data set” (2004)
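Where inhibition never reached the appropriate level, the endpoint shown equals the highest concentration tested. Otherwise, values were interpolated linearly from a five-concentration, 48-hour dose response in 96-well plates. Here, GI50 denotes the concentration required for 50% inhibition of growth.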 Calls of active or inactive are those of the source. Cut-off read from the data, not from the text of the source: active = GI50 up to about 1.1 µM and inactive = higher.

Columns and labels:
Assay in all cases: NCI anticancer screen, dose series, 48 h
A498 = system: A498
CAKI-1 = system: CAKI-1
HT-29 = system: HT-29
IGROV-1 = system: IGROV-1
KM12 = system: KM12
LOX IMVI = system: LOX IMVI
M14 = system: M14
MOLT-4 = system: MOLT-4
Malme-3M = system: Malme-3M
NCI-H460 = system: NCI-H460
OVCAR-5 = system: OVCAR-5
OVCAR-8 = system: OVCAR-8
RXF 393 = system: RXF 393
SF-268 = system: SF-268
SNB-75 = system: SNB-75
SR = system: SR
SW-620 = system: SW-620
T47D = system: T47D
U-251 = system: U-251
UO-31 = system: UO-31

SMILES	GI50 (A498)	GI50 (CAKI-1)	GI50 (HT-29)	GI50 (IGROV-1)	GI50 (KM12)	GI50 (LOX IMVI)	GI50 (M14)	GI50 (MOLT-4)	GI50 (Malme-3M)	GI50 (NCI-H460)	GI50 (OVCAR-5)	GI50 (OVCAR-8)	GI50 (RXF 393)	GI50 (SF-268)	GI50 (SNB-75)	GI50 (SR)	GI50 (SW-620)	GI50 (T47D)	GI50 (U-251)	GI50 (UO-31)
O=[N+]([O-])c1ccc(S(=O)(=O)Cc2ccccc2)c2nonc12	> 100 µM (inactive)	20.1 µM (inactive)	18.7 µM (inactive)	18.8 µM (inactive)	19.5 µM (inactive)	19.2 µM (inactive)	16.4 µM (inactive)	18.7 µM (inactive)	17.9 µM (inactive)	21.1 µM (inactive)	58.2 µM (inactive)	22.1 µM (inactive)	17.7 µM (inactive)	20 µM (inactive)	27.6 µM (inactive)	24.2 µM (inactive)	22.1 µM (inactive)	18.9 µM (inactive)	18.2 µM (inactive)	29.2 µM (inactive)
COCC(=O)[C@]1(O)Cc2c(O)c3c(c(O)c2[C@@H](OC2CC(N)C(O)C(C)O2)C1)C(=O)c1c(OC)cccc1C3=O (stereo not given in full)	0.104 µM (active)	0.0628 µM (active)	0.0192 µM (active)	0.136 µM (active)	0.0564 µM (active)	0.0191 µM (active)	0.0927 µM (active)	0.014 µM (active)	0.105 µM (active)	0.0235 µM (active)	0.22 µM (active)	< 0.0172 µM (active)	0.0834 µM (active)	0.0351 µM (active)	0.0343 µM (active)	< 0.0138 µM (active)	0.0209 µM (active)	0.106 µM (active)	0.0836 µM (active)	0.0883 µM (active)
CC(=O)NC(Cc1ccccc1)NC(=O)O (stereo not given)	> 100 µM (inactive)	> 100 µM (inactive)	> 100 µM (inactive)	> 100 µM (inactive)	> 100 µM (inactive)	> 100 µM (inactive)	> 100 µM (inactive)	> 100 µM (inactive)	> 100 µM (inactive)	> 100 µM (inactive)	> 100 µM (inactive)	> 100 µM (inactive)	> 100 µM (inactive)	> 100 µM (inactive)	> 100 µM (inactive)	> 100 µM (inactive)	> 100 µM (inactive)	> 100 µM (inactive)	> 100 µM (inactive)	> 100 µM (inactive)
CC(C)=CC(Cc1ccccc1)S(=O)(=O)c1nc2ccccc2s1 (stereo not given)	19.9 µM (inactive)	4.05 µM (inactive)	19.3 µM (inactive)	19.7 µM (inactive)	18.7 µM (inactive)	2.69 µM (inactive)	12.5 µM (inactive)	2.98 µM (inactive)	14.5 µM (inactive)	21.3 µM (inactive)	19.2 µM (inactive)	15.4 µM (inactive)	19.7 µM (inactive)	15.6 µM (inactive)	16.6 µM (inactive)	1.98 µM (inactive)	18.7 µM (inactive)	23.6 µM (inactive)	15.9 µM (inactive)	13.8 µM (inactive)
C=C1CCN2CC[C@@H](OC(=O)/C(C)=C\C)[C@@H]12	> 100 µM (inactive)	> 100 µM (inactive)	66.2 µM (inactive)	> 100 µM (inactive)	> 100 µM (inactive)	> 100 µM (inactive)	> 100 µM (inactive)	> 100 µM (inactive)	> 100 µM (inactive)	> 100 µM (inactive)	> 100 µM (inactive)	> 100 µM (inactive)	> 100 µM (inactive)	> 100 µM (inactive)	> 100 µM (inactive)	> 100 µM (inactive)	> 100 µM (inactive)	> 100 µM (inactive)	> 100 µM (inactive)	> 100 µM (inactive)
ClC1=C(Cl)C(Cl)(Cl)SS1	> 10 µM (inactive)	2.96 µM (inactive)	> 10 µM (inactive)	> 7 µM (inactive)	> 10 µM (inactive)	> 4.15 µM (inactive)	3.8 µM (inactive)	1.31 µM (inactive)	3.15 µM (inactive)	> 10 µM (inactive)	> 10 µM (inactive)	> 6.41 µM (inactive)	> 10 µM (inactive)	> 10 µM (inactive)	> 10 µM (inactive)	1.73 µM (inactive)	2.47 µM (inactive)	4.79 µM (inactive)	> 10 µM (inactive)	> 4.47 µM (inactive)
c1ccc(C(c2cccc3c2ccc2ccccc23)C(c2ccccc2)c2cccc3c2ccc2ccccc23)cc1 (stereo not given)	> 100 µM (inactive)	> 100 µM (inactive)	> 100 µM (inactive)	> 100 µM (inactive)	> 100 µM (inactive)	> 100 µM (inactive)	> 100 µM (inactive)	> 100 µM (inactive)	> 100 µM (inactive)	> 100 µM (inactive)	> 100 µM (inactive)	> 100 µM (inactive)	> 100 µM (inactive)	> 100 µM (inactive)	> 100 µM (inactive)	> 100 µM (inactive)	> 100 µM (inactive)	> 100 µM (inactive)	> 100 µM (inactive)	> 100 µM (inactive)
COC1OC(COC(=O)c2cc(O)c(O)c(O)c2)C(OC(=O)c2cc(O)c(O)c(O)c2)C(OC(=O)c2cc(O)c(O)c(O)c2)C1OC(=O)c1cc(O)c(O)c(O)c1 (stereo not given)	1.77 µM (inactive)	41.4 µM (inactive)	33.5 µM (inactive)	27.4 µM (inactive)	22.4 µM (inactive)	13.5 µM (inactive)	13.1 µM (inactive)	11.8 µM (inactive)	27.9 µM (inactive)	9.2 µM (inactive)	57.5 µM (inactive)	27.2 µM (inactive)	64.1 µM (inactive)	27 µM (inactive)	26.3 µM (inactive)	11.1 µM (inactive)	31.6 µM (inactive)	52.4 µM (inactive)	10.6 µM (inactive)	17.1 µM (inactive)
N#CC(C#N)=Cn1c(=S)[nH]c2ccccc21	> 100 µM (inactive)	> 100 µM (inactive)	> 100 µM (inactive)	> 100 µM (inactive)	> 100 µM (inactive)	> 100 µM (inactive)	> 100 µM (inactive)	> 100 µM (inactive)	> 100 µM (inactive)	> 100 µM (inactive)	> 100 µM (inactive)	> 100 µM (inactive)	> 100 µM (inactive)	> 100 µM (inactive)	50.8 µM (inactive)	> 100 µM (inactive)	> 100 µM (inactive)	> 100 µM (inactive)	> 100 µM (inactive)	> 100 µM (inactive)
